Measured values reported in US6960456B1, “Method for preparing conjugated linoleic acid” (Valio Ltd., priority 1999, dated 2005).

Columns and labels:
[1] = system: Propionibacterium freudenreichii ssp. shermanii JS (PJS); experiment: Growth of PJS strain in MRS medium containing linoleic acid (turbidity, Klett meter); assay type: cell-based; settings: for Growth (cell density of the culture as turbidity, Klett meter): 600 μg/ml linoleic acid, 30° C.
Experimental: (§1) As controls were used the same medium without addition (positive growth control) and a medium to which only detergent was added. For the test, the propionic acid bacterium strains Propionibacterium freudenreichii ssp. shermanii JS (PJS), DSM 7067, and P. freudenreichii ssp. freudenreichii 131 ([…]) were first cultivated in MRS broths with • 1) no addition • 2) 600 μg/ml linoleic acid • 3) addition of 600 μg/ml linoleic acid from a stock solution containing 5 mg/ml linoleic acid and 1% of Tween 80 preparation in an aqueous solution (final content of Tween […]) • 4) addition of 0.9% of Kotilen and 600 μg/ml linoleic acid micellized according to Example 1 • 5) addition of 0.9% of Kotilen only (not linoleic acid) Each bacterium strain was cultivated in the culture medium twice at 30° C. for 72 h, whereafter each test broth was inoculated with 1% of fresh culture. The test cultures were monitored at 30° C. for 4 days by determining the cell density of the culture as turbidity with a Klett meter. At the end of cultivation (96 h), the amount of formed CLA was determined by gas chromatography, the c9,t11 isomer separately and the other isomers together.

propionic acid bacteria = settings: even in relatively low concentrations; cited from earlier work
[2] = system: P. freudenreichii ssp. freudenreichii 131 (P131); experiment: Growth of P131 strain in MRS medium containing linoleic acid (turbidity, Klett meter); assay type: cell-based, Propionibacterium freudenreichii ssp. freudenreichii; settings: for Growth (cell density of the culture as turbidity, Klett meter): 600 μg/ml linoleic acid, 30° C.
Experimental: as §1

PJS cells = experiment: Viable cell concentration in pH-adjusted fermentor culturing of PJS cells with micellized linoleic acid; assay type: cell-based, Propionibacterium freudenreichii ssp. shermanii
Experimental: The most efficient way to cultivate propionic acid bacteria on an industrial scale is to do it in a fermentor where the pH of the medium can be maintained optimal for cellular growth. A production process of conjugated linoleic acid by means of growing PJS cells was examined in fermentor cultures the solution volume being 2 liters. The whey permeate broth of Example 2 was used as growth medium. The growth broth contained micellized linoleic acid 400, 600, 1000 or 1400 μg/ml and Kotilen detergent 0.6, 0.9 or 1.5%, respectively. During the cultivation, the pH of the growth medium was maintained at 6.3 with linoleic acid concentrations of 400, 600 and 1000 μg/ml and at 6.5 with linoleic acid concentration of 1400 μg/ml by means of an automatic addition of ammonium solution. The cultivation temperature was 30° C. and the mixing rate was 100 rpm. The concentration of viable propionic acid bacteria cells was determined in buffered sodium lactate agar and the agar dishes were incubated at 30° C. anaerobically for 5 to 7 days. Table 3 compares the CLA production process in a fermentor, with the linoleic acid content in the medium of 400, 600 and 1000 μg/ml, after 94 hour cultivation, and that of 1400 μg/ml, after 108 and 132 hour cultivation.

breast cancer = settings: cited from earlier work
cancer cells = settings: tissue cultures of human cells; cited from earlier work
[3] = system: high density lipoprotein (HDL); settings: rabbit, in vivo; cited from earlier work
fatty tissues = settings: mouse, in vivo; cited from earlier work
[4] = system: mammary, stomach and colon cancer; settings: CLA-containing diet, compared with the reference group; cited from earlier work

Compound: CCCCC/C=C\C/C=C\CCCCCCCC(=O)O [LA, cis-9,trans-12 octadecadienoic acid]
- Effect on growth as compared with the control (in words) ([1]; 600 μg/ml): inhibited the growth
- Growth (cell density of the culture as turbidity, Klett meter) ([1]; 0 h): 78
- Growth (cell density of the culture as turbidity, Klett meter) ([1]; 24 h): 84
- Growth (cell density of the culture as turbidity, Klett meter) ([1]; 48 h): 96
- Growth (cell density of the culture as turbidity, Klett meter) ([1]; 72 h): 106
- Growth (cell density of the culture as turbidity, Klett meter) ([1]; 96 h): 110
- effect on the growth of propionic acid bacteria (propionic acid bacteria): inhibitory effect
- Effect on growth as compared with the control (in words) ([2]; 600 μg/ml): inhibited the growth
- Growth (cell density of the culture as turbidity, Klett meter) ([2]; 0 h): 80
- Growth (cell density of the culture as turbidity, Klett meter) ([2]; 24 h): 90
- Growth (cell density of the culture as turbidity, Klett meter) ([2]; 48 h): 97
- Growth (cell density of the culture as turbidity, Klett meter) ([2]; 72 h): 107
- Growth (cell density of the culture as turbidity, Klett meter) ([2]; 96 h): 115
- cell concentration (cfu/ml) (PJS cells; micellized LA 400 μg/ml, deterg. (Kotilen) 0.6%, 94 h, pH 6.3, 30° C.): 1.3 × 10^10 cfu/ml
- cell concentration (cfu/ml) (PJS cells; micellized LA 600 μg/ml, deterg. (Kotilen) 0.9%, 94 h, pH 6.3, 30° C.): 1.2 × 10^10 cfu/ml
- cell concentration (cfu/ml) (PJS cells; micellized LA 1000 μg/ml, deterg. (Kotilen) 1.5%, 94 h, pH 6.3, 30° C.): 1.4 × 10^10 cfu/ml
- cell concentration (cfu/ml) (PJS cells; micellized LA 1400 μg/ml, deterg. (Kotilen) 1.5%, 108 h, pH 6.5, 30° C.): 2.4 × 10^9 cfu/ml
- cell concentration (cfu/ml) (PJS cells; micellized LA 1400 μg/ml, deterg. (Kotilen) 1.5%, 132 h, pH 6.5, 30° C.): 1.3 × 10^10 cfu/ml
- effect on breast cancer (breast cancer): stimulating effect

Compound: conjugated linoleic acid [CLA]
- development of cancer cells (cancer cells): capable of inhibiting development of cancer cells
- amount of the good high density lipoprotein (HDL) [3]: does not reduce
- effect on fatty tissues (fatty tissues): split fatty tissues
- number of mammary, stomach and colon cancer incidences [4]: reduced
